Biological target: T1, human plasma protein factor Xa (Homo sapiens, UniProt P00742)
T1 construct: The human plasma protein factor Xa was purchased from Haematologic Technologies; purchased Haematologic Technologies (Essex Junction, Vt.); host or cells: human plasma
Experiment: Factor Xa Ki determination (cleavage of chromogenic substrate S-2765)
Type: biochemical
Conditions: fXa 1 nM, S-2765 200 μM, pH 7.4
Experimental: Protocol for Assay of Factor Xa Inhibitors
The substrate S-2765 (Z-D-Arg-Gly-Arg-pNA.HCl) was obtained from Diapharma (West Chester, Ohio).
The human plasma protein factor Xa was purchased from Haematologic Technologies (Essex Junction, Vt.).
The assay buffer for this series of assays was: Hepes buffered saline (20 mM Hepes, 150 mM NaCl, 5 mM CaCl2, 0.1% PEG-8000, pH 7.4). In a 96-well microtiter plate, inhibitor was serially diluted in a duplicate set of wells to give a range of final concentrations from 5 pM to 3 μM final. Controls without inhibitor (8 wells) were included. The enzyme, fXa (1 nM final) was added to the wells. The substrate S-2765 (200 μM final) was added and the degree of substrate hydrolysis was measured at 405 nm on a Thermomax plate reader for 5 minutes, using Softmax software. Initial velocities (mOD/min) were analyzed by non-linear least squares regression in the Plate Ki software (BioKin Ltd, Pullman, Wash.)(Literature reference: Kusmic P, et al., “High-throughput screening of enzyme inhibitors: Automatic determination of tight-binding inhibition constants” Anal. Biochemistry 2000, 281:62–67). The model used for fitting the inhibitor dose-response curves was the Morrison equation. An apparent Ki (Ki*) was determined. The overall Ki was calculated using the following equation: […]

T1 sequence (P00742 235-488 limits assumed): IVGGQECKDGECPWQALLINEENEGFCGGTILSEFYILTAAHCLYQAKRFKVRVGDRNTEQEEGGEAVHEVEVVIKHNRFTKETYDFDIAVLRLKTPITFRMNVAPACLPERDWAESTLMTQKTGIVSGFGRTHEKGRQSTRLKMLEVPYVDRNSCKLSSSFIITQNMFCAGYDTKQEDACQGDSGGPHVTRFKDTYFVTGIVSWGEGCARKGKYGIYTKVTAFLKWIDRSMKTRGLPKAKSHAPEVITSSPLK
T1 sequence (P00742 41-179 partner limits assumed): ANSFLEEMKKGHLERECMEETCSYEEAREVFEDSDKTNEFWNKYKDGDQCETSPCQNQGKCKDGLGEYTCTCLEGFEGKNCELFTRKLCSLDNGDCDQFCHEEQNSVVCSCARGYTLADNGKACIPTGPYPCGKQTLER

Ki, < 10 nM:
CN(C)C(=N)c1ccc(C(=O)Nc2ccc(SCC(=O)N(C)C)cc2C(=O)Nc2ccc(Cl)cn2)cc1 [Example 1, N-(5-chloro-2-pyridinyl)-2-(4-N,N-dimethylamidinophenylcarbonyl)amino-5-acetic acid dimethylamide sulfanyl-phenylcarboxamide]
CN(C)C(=N)c1ccc(C(=O)Nc2ccc(SCC(=O)N3CCCCC3)cc2C(=O)Nc2ccc(Cl)cn2)cc1 [Example 2]
CN(C)C(=N)c1ccc(C(=O)Nc2ccc(SCC(=O)N3CCN(C(=O)OC(C)(C)C)CC3)cc2C(=O)Nc2ccc(Cl)cn2)cc1 [Example 3]
CN(C)C(=O)CSc1ccc(NC(=O)c2ccc(C3=NCCN3C)cc2)c(C(=O)Nc2ccc(Cl)cn2)c1 [Example 4]
CN1CCN=C1c1ccc(C(=O)Nc2ccc(SCC(N)=O)cc2C(=O)Nc2ccc(Cl)cn2)cc1 [Example 6]
CNC(=O)CSc1ccc(NC(=O)c2ccc(C3=NCCN3C)cc2)c(C(=O)Nc2ccc(Cl)cn2)c1 [Example 7]
CN(C)CCSc1ccc(NC(=O)c2ccc(C(=N)N(C)C)cc2)c(C(=O)Nc2ccc(Cl)cn2)c1 [Example 9]
